Where two headings read alike, the source gives them in different places.
Assays:
[1] = Single-dose plasma pharmacokinetics after i.g. administration; format: in vivo, SD rats; settings: for bioavailability / AUC(0-inf) / AUC(0-t) / Tmax / MRT last / Vd/F / half-life / Cmax: SD, rat, plasma; for bioavailability: oral, i.g. vs i.v., read-out: absolute (oral) bioavailability; for AUC(0-inf) / AUC(0-t) / Tmax / MRT last / Vd/F / half-life / Cmax: po; for MRT last: read-out: MRT0–t; for Vd/F: read-out: Vz/F; for half-life: read-out: t1/2z (converted); for Cmax: n = 5; for relationship between dosages and AUC0–t in plasma: oral 1, 2 and 4 mg/kg
Protocol: Pharmacokinetic studies of verticinone after intravenous (i.v.) and intragastrical (i.g.) administration to rats were designed to determine pharmacokinetic parameters and absolute bioavailability. For i.g administration, verticinone was suspended in 0.5% carboxymethyl cellulose sodium (CMC-Na) to final concentrations of 0.2, 0.4 and 0.8 mg/mL. Verticinone was dissolved in 20% ethanol/80% water to final concentration of 0.08 mg/mL for i.v. administration. For the i.v. group, five male and five female rats received a single dose of 0.4 mg/kg. Blood samples (0.25 mL) were obtained at 0, 4, 15, 30, 45, 60, 120, 240, 360, 480, 600 and 720 min after injection. For the single- i.g. group, fifteen male and fifteen female rats were divided into three groups, and each group received a single oral dose of 1, 2 and 4 mg/kg of verticinone, respectively. In addition, another five male and five female rats received multiple oral doses of 4 mg/kg/day, given as 2 mg/kg doses twice a day (one dose in the morning and the second dose 12 h later) for 7 days, then a single oral dose of 2 mg/kg on the eighth day. Blood samples (0.25 mL) were obtained at 0, 5, 15, 30, 45, 60, 90, 120, 240, 360, 480 and 720 min for male rats and at 0, 5, 10, 20, 30, 45, 60, 120, 240, 360, 480 and 720 min for female rats after oral administration (the eighth day for multiple-dose group). Blood samples were then centrifuged at 4000 rpm for 10 min, and the plasma was collected. All plasma samples were frozen and stored at −20 °C until analysis. Verticinone was isolated from plasma by liquid-liquid extraction according to our previously reported procedure.
The quantification of verticinone was performed by a LC-MS method based on the previously reported method with slight modifications. The liquid chromatography system consisted of a model 2010 chromatograph (Shimadzu, Kyoto, Japan) equipped with a Shim-Pack VP-ODS C18 column (150 mm × 2.0 mm, 5 μm). A Shimadzu 2010 mass spectrometer (Q-array-Octapole-Quadrupole mass analyzer) equipped with an electrospray ionization interface was used for MS detection. The mobile phase consisted of (A) distilled water and (B) methanol, and the flow rate was 0.2 mL/min. Chromatography separation was achieved using a gradient elution program, as follows: 0.03→6.0 min, B% 15→85; 6.0→7.0 min, B% 85→85; 7.0→8.0 min, B% 85→15; 8.0–12.0 min, B% 15→15. The column and autosampler tray temperature were kept constant at 35 °C and 20 °C, respectively. For the determination of verticinone, the positive mode was selected, along with the conditions as follows.
CDL voltage […], probe voltage 4.5 kV, CDL temperature 250 °C, block temperature 200 °C, gas flow 1.5 L/min. Hupehenine was used as the internal standard (IS). Both verticinone and IS were detected using selected ion monitoring (SIM) at m/z 430.25 for verticinone and m/z 416.30 for hupehenine (IS), with a dwell time of 200 ms. Blank plasma, tissue homogenate, urine, feces homogenate and bile were used to prepare the corresponding calibration curves to avoid different matrix effects.
The pharmacokinetic parameters were calculated by the DAS 2.0 software (Chinese Pharmacological Association, Beijing, China) using a standard non-compartmental method. The Cmax and Tmax were determined from the observed data. The elimination rate constant (ke) was calculated by log-linear regression of verticinone concentrations during the terminal elimination phase and the half-life (t1/2) was calculated as 0.693/ke. The AUC0–t was calculated by the linear trapezoidal method. The AUC0–∞ was calculated as the sum of AUC0–t and the extrapolated part determined by Clast/ke. The total clearance (CL) was calculated as dose/AUC0–∞. The absolute bioavailability (F) was calculated by the following equation: F = [(AUCi.g./AUCi.v.) × (Dosei.v./Dosei.g.)] × 100%. The results were expressed as mean ± SD. Statistical analyses were performed using an unpaired Student’s t-test.

[2] = Plasma protein binding in vitro by ultrafiltration, rat plasma; format: in vitro ADME, rats
Protocol: (§1) The ability of verticinone to bind to plasma protein was determined by the ultrafiltration method. A Centrifree Micropartition device (Millipore, Beverly, MA, USA) was used to separate unbound and bound verticinone. Verticinone of different concentrations were added into blank rat and human plasma to give final concentrations at 5, 30 and 100 ng/mL. The spiked plasma was incubated for 30 min at 37 °C and an aliquot (100 μL) was analyzed by previously described methods to determine the total concentration of verticinone. The ultrafiltrate was obtained by centrifuging at 14,000 rpm for 10 min. The concentration of unbound verticinone in filtrate was similarly determined by the previously described methods. The percentage of free fraction (p) of verticinone was calculated as follow: p = (concentration of verticinone in ultrafiltrate/concentration of verticinone in original spiked plasma sample) × 100%.

[3] = Plasma protein binding in vitro by ultrafiltration, human plasma; format: in vitro ADME, humans
Protocol: as §1

[4] = i.g. 1 mg/kg single dose, female rats
[5] = i.g. 1 mg/kg single dose, male rats
[6] = i.g. 2 mg/kg single dose, female rats
[7] = i.g. 2 mg/kg single dose, male rats
[8] = i.g. 4 mg/kg single dose, female rats
[9] = i.g. 4 mg/kg single dose, male rats

Which bioavailability ([1]; female rats) does the source give for `C[C@H]1CC[C@@H]2N(C1)C[C@H]1[C@@H]3C[C@H]4[C@@H](CC(=O)[C@H]5C[C@@H](O)CC[C@@]54C)[C@@H]3CC[C@@H]1[C@]2(C)O` [verticinone, Verticinone] here?
The bioavailability was 2.74%.

And the bioavailability ([1]; male rats)?
The bioavailability was 45.8%.

And the AUC(0-inf) [1, 4]?
The AUC(0-inf) was 0.0153 ± 0.00306 µg·h/mL.

What about the AUC(0-t) [1, 4] of the same compound?
The AUC(0-t) was 0.0145 ± 0.00327 µg·h/mL.

And the Tmax [1, 4]?
Its Tmax is 0.67 ± 0.31 h.

And the MRT last [1, 4]?
The MRT last was 3.59 ± 0.18 h.

And the Vd/F [1, 4]?
The Vd/F was 280 ± 160 L/kg.

What about the half-life [1, 4] of the same compound?
Its half-life is 2.86 ± 1.29 h.

What about the AUC(0-inf) [1, 5] of the same compound?
Its AUC(0-inf) is 0.167 ± 0.0525 µg·h/mL.

What about the AUC(0-t) [1, 5] of the same compound?
The AUC(0-t) was 0.159 ± 0.0501 µg·h/mL.

What about the Tmax [1, 5] of the same compound?
Its Tmax is 0.7 ± 0.11 h.

What about the MRT last [1, 5] of the same compound?
The MRT last was 3.21 ± 0.34 h.

And the Vd/F [1, 5]?
Its Vd/F is 25.5 ± 9.07 L/kg.

What about the half-life [1, 5] of the same compound?
Its half-life is 2.78 ± 0.85 h.

What about the AUC(0-inf) [1, 6] of the same compound?
The AUC(0-inf) was 0.0188 ± 0.00501 µg·h/mL.

And the AUC(0-t) [1, 6]?
The AUC(0-t) was 0.0173 ± 0.0054 µg·h/mL.

What about the Tmax [1, 6] of the same compound?
Its Tmax is 0.4 ± 0.36 h.

And the MRT last [1, 6]?
Its MRT last is 3.42 ± 1.22 h.

What about the Vd/F [1, 6] of the same compound?
The Vd/F was 649 ± 419 L/kg.

What about the half-life [1, 6] of the same compound?
Its half-life is 4.05 ± 2.48 h.

And the AUC(0-inf) [1, 7]?
The AUC(0-inf) was 0.475 ± 0.119 µg·h/mL.

What about the AUC(0-t) [1, 7] of the same compound?
The AUC(0-t) was 0.446 ± 0.111 µg·h/mL.

And the Tmax [1, 7]?
The Tmax was 1.45 ± 1.42 h.

What about the MRT last [1, 7] of the same compound?
Its MRT last is 3.62 ± 0.37 h.

What about the Vd/F [1, 7] of the same compound?
Its Vd/F is 19.4 ± 6.7 L/kg.

What about the half-life [1, 7] of the same compound?
Its half-life is 3.05 ± 0.78 h.

And the AUC(0-inf) [1, 8]?
Its AUC(0-inf) is 0.0271 ± 0.00578 µg·h/mL.

What about the AUC(0-t) [1, 8] of the same compound?
Its AUC(0-t) is 0.0266 ± 0.00584 µg·h/mL.

What about the Tmax [1, 8] of the same compound?
The Tmax was 0.4 ± 0.35 h.

And the MRT last [1, 8]?
Its MRT last is 2.04 ± 0.21 h.

And the Vd/F [1, 8]?
The Vd/F was 387 ± 74.2 L/kg.

What about the half-life [1, 8] of the same compound?
The half-life was 1.84 ± 0.58 h.

What about the AUC(0-inf) [1, 9] of the same compound?
Its AUC(0-inf) is 0.769 ± 0.257 µg·h/mL.

What about the AUC(0-t) [1, 9] of the same compound?
Its AUC(0-t) is 0.737 ± 0.236 µg·h/mL.

What about the Tmax [1, 9] of the same compound?
Its Tmax is 0.7 ± 0.11 h.

And the MRT last [1, 9]?
The MRT last was 3.19 ± 0.48 h.

What about the Vd/F [1, 9] of the same compound?
Its Vd/F is 18.6 ± 9.14 L/kg.

And the half-life [1, 9]?
Its half-life is 2.33 ± 0.86 h.

And the Cmax [1, 4]?
Its Cmax is 0.00367 ± 0.00113 µg/mL.

What about the Cmax [1, 5] of the same compound?
The Cmax was 0.0389 ± 0.00934 µg/mL.

And the Cmax [1, 6]?
Its Cmax is 0.00745 ± 0.0071 µg/mL.

What about the Cmax [1, 7] of the same compound?
The Cmax was 0.0948 ± 0.0171 µg/mL.

And the Cmax [1, 8]?
The Cmax was 0.0126 ± 0.00514 µg/mL.

What about the Cmax [1, 9] of the same compound?
The Cmax was 0.176 ± 0.0452 µg/mL.

And the “relationship between dosages and AUC0–t in plasma” value ([1]; female rats)?
Its value is “nonlinear dependence”.

What about the “relationship between dosages and AUC0–t in plasma” value ([1]; male rats) of the same compound?
The value was “linear dependence”.

What about the fraction unbound at 30 min, 5 ng/mL ([2]; rat plasma, 5 ng/mL, ultrafiltration, n = 4, read-out: Protein binding rates (%) (converted)) of the same compound?
The fraction unbound at 30 min, 5 ng/mL was 0.087.

And the fraction unbound at 30 min, 30 ng/mL ([2]; rat plasma, 30 ng/mL, ultrafiltration, n = 4, read-out: Protein binding rates (%))?
The fraction unbound at 30 min, 30 ng/mL was 0.09.

What about the fraction unbound at 30 min, 100 ng/mL ([2]; rat plasma, 100 ng/mL, ultrafiltration, n = 4, read-out: Protein binding rates (%) (converted)) of the same compound?
The fraction unbound at 30 min, 100 ng/mL was 0.102.

What about the fraction unbound at 30 min ([2]; rat, plasma, rats, concentration range 5~100 ng/mL) of the same compound?
The fraction unbound at 30 min was 0.087 to 0.102.

And the fraction unbound at 30 min, 5 ng/mL ([3]; human plasma, 5 ng/mL, ultrafiltration, n = 4, read-out: Protein binding rates (%) (converted))?
The fraction unbound at 30 min, 5 ng/mL was 0.074.

What about the fraction unbound at 30 min, 30 ng/mL ([3]; human plasma, 30 ng/mL, ultrafiltration, n = 4, read-out: Protein binding rates (%) (converted)) of the same compound?
Its fraction unbound at 30 min, 30 ng/mL is 0.105.

And the fraction unbound at 30 min, 100 ng/mL ([3]; human plasma, 100 ng/mL, ultrafiltration, n = 4, read-out: Protein binding rates (%) (converted))?
Its fraction unbound at 30 min, 100 ng/mL is 0.054.

And the fraction unbound at 30 min ([3]; human, plasma, humans, concentration range 5~100 ng/mL)?
Its fraction unbound at 30 min is 0.054 to 0.105.

— article PMC6271218, “Pharmacokinetics, Tissue Distribution and Excretion of Verticinone from F. hupehensis in Rats” (Molecules, 2014)
